Results published in patent US10822339B2, “Pyrrolopyrimidine five-membered azacyclic derivative and application thereof” (HANGZHOU HUADONG MEDICINE GROUP BIOPHARMACEUTICAL CO. LTD, priority 2016, dated 2020).
Like-named read-outs stand apart in the source and are kept apart here.

How the values were obtained:
[1] = Toxic side effects experiment, 14 days repeated dosing; conditions: for toxic side effects: rat, in vivo; for organ tissues, blood biochemical parameters versus vehicle control group: once daily 30 mg/kg/day for 14 days
Method: The toxic side effects of the compounds of the present invention (Ia and Ib) were studied. The rats were administered once daily at 30 mg/kg/day for 14 days consecutively.

[2] = Pharmacokinetic experiments in Beagles; format: in vivo; conditions: single administration; for half-life: read-out: Terminal t1/2 (converted)
Method: Experimental animals: Beagles, male and female; body weight: 7-9 kg;
Preparation of test samples: the compound (Ia) of the present invention was formulated into 2.5 mg/mL (for intravenous administration) and 2.0 mg/mL (for oral administration) for use. Routes of administration: oral/intravenous injection. Dosing capacity and frequency: 2 mL/kg (intravenous injection) or 5 mL/kg (oral), single administration.
Sample collection: blood was collected at the following time points: post-dose at 5 min, 15 min, 30 min, 1 hr, 2 hrs, 4 hrs, 8 hrs, and 24 hrs.
Sample analysis: The collected samples were tested using the LC-MS/MS method. The instrument model is API4000.
Pharmacokinetic data analysis: WinNolin was used to fit and calculate the obtained plasma concentration data according to the non-compartmental model method.

[3] = system: adjuvant-induced arthritis; assay: Rat adjuvant-induced arthritis efficacy model; format: in vivo; conditions: oral; for animal clinical scores / paw volumes: dose groups of 10 mg/kg and 15 mg/kg; for animal body weight increase versus vehicle group: treatment groups, 14 days dosing
hERG = biological target: T1, hERG (Homo sapiens, UniProt Q12809); assay: Whole cell hERG potassium channel current blocking, automatic patch clamp; format: cell-based; conditions: HEK293 cells expressing hERG stably
T1 construct: expressed in transfected cells; host or cells: HEK293
Description: Potassium channel current blocking percentage of whole cell hERG by the compounds of the present invention is studied using HEK293 cells expressing hERG stably and automatic patch clamp system detection method, the dose-effect relationship curve was obtained. The positive drug is Cisapride.

JAK2 = JAK2 (Homo sapiens, UniProt O60674); assay: Enzyme activity inhibition, Caliper Mobility Shift Assay; format: biochemical; conditions: for IC50: read-out: Kinase inhibitory activity (IC50, nM) JAK2
Method: (§1) The semi-inhibitory concentration IC50 of the compounds (the concentration of the compounds required to inhibit enzyme activity to 50%) is determined by the immobilized enzyme mixed with a specific substrate and different concentrations of the test compounds. The determination method used was a Caliper Mobility Shift Assay. The kinases determined were JAK1, JAK2, JAK3 and TYK2. The standard reference compound used was staurosporine.

TYK2 = TYK2 (Homo sapiens, UniProt P29597); assay: as above; format: biochemical; conditions: read-out: Kinase inhibitory activity (IC50, nM) TYK2
Method: as §1

JAK3 = biological target: T2, JAK3 (Homo sapiens, UniProt P52333); assay: as above; format: biochemical; conditions: read-out: Kinase inhibitory activity (IC50, nM) JAK3
T2 sequence (P52333 1-1124): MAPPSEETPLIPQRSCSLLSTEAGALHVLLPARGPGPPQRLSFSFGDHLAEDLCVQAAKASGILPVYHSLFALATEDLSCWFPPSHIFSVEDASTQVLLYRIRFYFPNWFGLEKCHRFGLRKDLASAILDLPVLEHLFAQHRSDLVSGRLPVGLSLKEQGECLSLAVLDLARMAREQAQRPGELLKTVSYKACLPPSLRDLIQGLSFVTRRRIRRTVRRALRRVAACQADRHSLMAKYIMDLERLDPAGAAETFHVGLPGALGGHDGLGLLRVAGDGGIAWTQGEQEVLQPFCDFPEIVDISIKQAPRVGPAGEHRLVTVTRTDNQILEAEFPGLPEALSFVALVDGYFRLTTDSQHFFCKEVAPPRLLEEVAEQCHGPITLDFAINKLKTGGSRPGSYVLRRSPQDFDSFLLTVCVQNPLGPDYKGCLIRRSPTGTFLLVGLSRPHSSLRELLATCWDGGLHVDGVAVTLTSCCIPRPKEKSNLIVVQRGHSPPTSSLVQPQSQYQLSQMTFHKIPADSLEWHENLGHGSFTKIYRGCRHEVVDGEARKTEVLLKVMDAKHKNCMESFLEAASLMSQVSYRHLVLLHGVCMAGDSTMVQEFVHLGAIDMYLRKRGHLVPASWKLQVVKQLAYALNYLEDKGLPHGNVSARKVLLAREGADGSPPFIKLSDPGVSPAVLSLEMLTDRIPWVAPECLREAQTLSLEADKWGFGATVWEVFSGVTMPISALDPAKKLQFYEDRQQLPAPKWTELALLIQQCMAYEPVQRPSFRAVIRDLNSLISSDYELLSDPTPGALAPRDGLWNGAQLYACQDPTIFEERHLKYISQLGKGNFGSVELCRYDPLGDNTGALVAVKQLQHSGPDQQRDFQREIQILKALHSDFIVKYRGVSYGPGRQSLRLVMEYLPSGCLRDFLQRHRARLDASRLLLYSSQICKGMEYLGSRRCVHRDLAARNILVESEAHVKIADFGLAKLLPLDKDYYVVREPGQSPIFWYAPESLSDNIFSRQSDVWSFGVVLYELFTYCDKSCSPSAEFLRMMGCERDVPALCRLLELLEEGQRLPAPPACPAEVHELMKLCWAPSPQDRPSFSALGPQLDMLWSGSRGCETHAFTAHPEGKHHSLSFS
Method: as §1

JAK1 = JAK1 (Homo sapiens, UniProt P23458); assay: as above; format: biochemical; conditions: read-out: Kinase inhibitory activity (IC50, nM) JAK1
Method: as §1

[4] = both sexes, beagle, dog, plasma, intravenous injection, 5 mg/kg
[5] = both sexes, beagle, dog, plasma, oral, 10 mg/kg

Chain of JAK2 (O60674 whole entry): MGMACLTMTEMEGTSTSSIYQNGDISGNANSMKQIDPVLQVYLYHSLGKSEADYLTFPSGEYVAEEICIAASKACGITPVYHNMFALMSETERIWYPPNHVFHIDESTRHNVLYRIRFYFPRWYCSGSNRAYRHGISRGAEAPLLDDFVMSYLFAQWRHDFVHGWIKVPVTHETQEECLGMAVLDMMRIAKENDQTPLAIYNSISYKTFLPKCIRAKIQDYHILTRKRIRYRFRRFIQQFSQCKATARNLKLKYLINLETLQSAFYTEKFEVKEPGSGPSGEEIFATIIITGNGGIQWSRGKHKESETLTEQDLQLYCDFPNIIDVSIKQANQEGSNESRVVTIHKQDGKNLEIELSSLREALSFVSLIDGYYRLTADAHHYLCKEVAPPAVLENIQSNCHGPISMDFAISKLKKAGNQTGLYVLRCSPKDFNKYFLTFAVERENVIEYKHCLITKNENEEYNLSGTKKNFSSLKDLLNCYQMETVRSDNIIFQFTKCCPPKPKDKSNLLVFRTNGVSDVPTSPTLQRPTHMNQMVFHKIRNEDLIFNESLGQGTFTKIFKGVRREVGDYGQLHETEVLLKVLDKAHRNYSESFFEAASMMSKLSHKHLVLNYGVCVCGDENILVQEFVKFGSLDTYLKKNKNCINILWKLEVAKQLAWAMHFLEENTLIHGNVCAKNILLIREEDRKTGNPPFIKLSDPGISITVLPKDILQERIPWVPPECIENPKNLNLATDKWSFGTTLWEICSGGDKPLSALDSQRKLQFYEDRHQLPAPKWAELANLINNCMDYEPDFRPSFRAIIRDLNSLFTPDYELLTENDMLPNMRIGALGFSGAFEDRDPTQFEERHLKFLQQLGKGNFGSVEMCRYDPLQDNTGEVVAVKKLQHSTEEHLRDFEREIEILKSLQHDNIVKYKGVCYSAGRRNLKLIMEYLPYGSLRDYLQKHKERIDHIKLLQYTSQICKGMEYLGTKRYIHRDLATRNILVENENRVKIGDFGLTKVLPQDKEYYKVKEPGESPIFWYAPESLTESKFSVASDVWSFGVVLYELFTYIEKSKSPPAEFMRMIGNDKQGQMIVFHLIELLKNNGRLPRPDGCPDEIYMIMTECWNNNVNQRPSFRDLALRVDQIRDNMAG
T1 sequence (Q12809 whole entry): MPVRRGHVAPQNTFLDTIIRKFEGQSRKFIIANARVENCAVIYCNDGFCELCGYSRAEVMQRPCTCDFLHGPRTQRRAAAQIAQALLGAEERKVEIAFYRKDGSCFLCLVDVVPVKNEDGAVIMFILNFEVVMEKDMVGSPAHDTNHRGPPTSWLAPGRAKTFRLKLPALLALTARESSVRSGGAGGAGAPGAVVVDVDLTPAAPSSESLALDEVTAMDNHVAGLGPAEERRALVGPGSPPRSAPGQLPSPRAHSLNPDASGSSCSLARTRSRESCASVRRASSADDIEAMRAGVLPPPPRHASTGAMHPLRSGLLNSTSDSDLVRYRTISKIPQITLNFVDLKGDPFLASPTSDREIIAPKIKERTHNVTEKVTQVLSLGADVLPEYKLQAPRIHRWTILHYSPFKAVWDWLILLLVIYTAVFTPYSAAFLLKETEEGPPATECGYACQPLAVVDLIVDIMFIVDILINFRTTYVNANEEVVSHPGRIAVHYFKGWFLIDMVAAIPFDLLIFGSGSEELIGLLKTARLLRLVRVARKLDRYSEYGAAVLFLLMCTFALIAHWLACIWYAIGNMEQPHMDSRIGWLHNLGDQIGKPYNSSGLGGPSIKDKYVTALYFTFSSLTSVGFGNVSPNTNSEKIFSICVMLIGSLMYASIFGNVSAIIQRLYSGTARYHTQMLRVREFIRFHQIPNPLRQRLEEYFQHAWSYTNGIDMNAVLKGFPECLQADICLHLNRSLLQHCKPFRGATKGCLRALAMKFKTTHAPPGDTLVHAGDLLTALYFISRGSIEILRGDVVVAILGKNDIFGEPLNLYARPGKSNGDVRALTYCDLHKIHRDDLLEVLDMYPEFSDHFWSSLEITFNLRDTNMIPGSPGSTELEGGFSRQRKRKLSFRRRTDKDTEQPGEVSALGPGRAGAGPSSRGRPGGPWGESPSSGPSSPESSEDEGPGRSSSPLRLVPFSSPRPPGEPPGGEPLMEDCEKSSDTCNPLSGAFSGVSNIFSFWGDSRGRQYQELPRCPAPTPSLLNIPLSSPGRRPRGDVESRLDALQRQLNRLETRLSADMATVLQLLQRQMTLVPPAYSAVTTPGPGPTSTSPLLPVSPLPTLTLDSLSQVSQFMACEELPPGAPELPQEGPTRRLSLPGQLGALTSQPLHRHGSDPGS
Chain of TYK2 (P29597 whole entry): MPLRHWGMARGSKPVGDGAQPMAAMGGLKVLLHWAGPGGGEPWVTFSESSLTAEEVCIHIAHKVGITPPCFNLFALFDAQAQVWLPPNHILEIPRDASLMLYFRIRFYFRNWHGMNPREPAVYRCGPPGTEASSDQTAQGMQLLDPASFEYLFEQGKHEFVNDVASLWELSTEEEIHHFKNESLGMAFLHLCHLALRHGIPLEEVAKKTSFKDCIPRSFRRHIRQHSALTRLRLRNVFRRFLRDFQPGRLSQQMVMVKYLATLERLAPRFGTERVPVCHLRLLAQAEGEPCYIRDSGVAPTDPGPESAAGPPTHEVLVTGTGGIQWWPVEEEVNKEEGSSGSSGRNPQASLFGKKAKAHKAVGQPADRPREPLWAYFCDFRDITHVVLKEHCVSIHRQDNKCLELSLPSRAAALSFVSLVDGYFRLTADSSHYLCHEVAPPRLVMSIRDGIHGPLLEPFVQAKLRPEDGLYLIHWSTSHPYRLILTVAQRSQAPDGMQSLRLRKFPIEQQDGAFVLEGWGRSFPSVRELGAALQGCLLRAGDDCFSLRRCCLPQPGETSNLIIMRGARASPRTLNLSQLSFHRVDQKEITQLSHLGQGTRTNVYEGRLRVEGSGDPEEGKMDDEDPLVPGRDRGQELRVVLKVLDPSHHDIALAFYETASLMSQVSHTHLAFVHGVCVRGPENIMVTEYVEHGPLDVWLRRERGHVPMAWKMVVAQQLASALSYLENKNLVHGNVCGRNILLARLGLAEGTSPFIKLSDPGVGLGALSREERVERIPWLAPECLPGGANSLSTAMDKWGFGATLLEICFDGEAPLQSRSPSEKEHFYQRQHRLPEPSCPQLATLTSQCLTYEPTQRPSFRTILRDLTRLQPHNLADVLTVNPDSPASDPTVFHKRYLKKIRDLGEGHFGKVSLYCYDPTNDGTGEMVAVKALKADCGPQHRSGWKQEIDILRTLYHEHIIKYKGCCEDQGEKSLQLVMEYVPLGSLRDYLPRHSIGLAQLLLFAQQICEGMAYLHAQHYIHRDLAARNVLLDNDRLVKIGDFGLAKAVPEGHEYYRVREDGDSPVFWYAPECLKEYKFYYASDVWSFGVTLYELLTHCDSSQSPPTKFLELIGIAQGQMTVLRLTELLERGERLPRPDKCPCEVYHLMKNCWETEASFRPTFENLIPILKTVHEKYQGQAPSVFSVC
Chain of JAK1 (P23458 whole entry): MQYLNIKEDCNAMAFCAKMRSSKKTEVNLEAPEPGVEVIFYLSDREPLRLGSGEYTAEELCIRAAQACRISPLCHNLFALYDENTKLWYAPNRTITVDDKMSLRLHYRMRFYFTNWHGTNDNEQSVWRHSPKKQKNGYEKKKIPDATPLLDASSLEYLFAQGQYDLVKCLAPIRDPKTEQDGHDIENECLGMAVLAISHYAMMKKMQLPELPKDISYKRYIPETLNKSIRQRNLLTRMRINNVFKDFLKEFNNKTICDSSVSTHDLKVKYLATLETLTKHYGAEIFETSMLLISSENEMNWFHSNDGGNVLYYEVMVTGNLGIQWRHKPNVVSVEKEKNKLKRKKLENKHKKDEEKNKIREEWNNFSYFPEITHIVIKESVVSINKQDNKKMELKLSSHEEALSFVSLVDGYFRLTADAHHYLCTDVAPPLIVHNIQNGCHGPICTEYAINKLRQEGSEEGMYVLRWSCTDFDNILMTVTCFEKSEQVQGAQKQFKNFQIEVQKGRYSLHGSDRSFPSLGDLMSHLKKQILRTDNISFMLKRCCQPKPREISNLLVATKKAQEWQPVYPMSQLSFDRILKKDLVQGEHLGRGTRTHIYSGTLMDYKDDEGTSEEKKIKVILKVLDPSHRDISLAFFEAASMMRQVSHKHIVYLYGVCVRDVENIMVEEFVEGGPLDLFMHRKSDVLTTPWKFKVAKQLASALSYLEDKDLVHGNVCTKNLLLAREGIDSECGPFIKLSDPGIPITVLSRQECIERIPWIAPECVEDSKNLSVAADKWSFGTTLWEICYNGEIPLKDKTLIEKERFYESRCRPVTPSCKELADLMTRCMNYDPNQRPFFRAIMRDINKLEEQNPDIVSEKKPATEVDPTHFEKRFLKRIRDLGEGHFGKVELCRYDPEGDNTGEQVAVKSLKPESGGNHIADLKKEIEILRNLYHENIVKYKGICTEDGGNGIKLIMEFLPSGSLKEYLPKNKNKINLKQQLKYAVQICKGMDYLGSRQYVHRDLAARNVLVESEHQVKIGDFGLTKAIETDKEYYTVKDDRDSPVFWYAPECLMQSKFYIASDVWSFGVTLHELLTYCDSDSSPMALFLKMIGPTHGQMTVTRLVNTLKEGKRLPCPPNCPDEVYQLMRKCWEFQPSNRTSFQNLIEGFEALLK

Row | SMILES | toxic side effects ([1]; 30 mg/kg/day) | organ tissues, blood biochemical parameters versus vehicle control group ([1]; rats) | animal clinical scores [3] | paw volumes [3] | animal body weight increase versus vehicle group [3] | IC50 (hERG) | inhibitory effects on JAK2 kinase (JAK2) | IC50 (JAK2) | other results
1 | CCS(=O)(=O)N1CC(CC#N)(n2cc(-c3ncnc4[nH]ccc34)cn2)C1 [Baricitinib, reference compound] | certain toxic side effects |  |  |  |  |  |  |  | thymus and spleen tissues size ([1]; rats, 30 mg/kg/day, same experiment): significantly reduced (a quarter of the normal size)
2 | CCS(=O)(=O)N1CCC(CC#N)(n2cc(-c3ncnc4[nH]ccc34)cn2)CC1 [Compound of formula Ia] | no obvious toxic side effects | no significant difference | almost close to the normal group | almost close to the normal group | greater increases in animal body weight than that of the vehicle group | > 30000 nM | very strong inhibitory effects | 0.2 nM | AUC(0-t) [2, 4]: 10900 ng·h/mL; MRT inf [2, 4]: 4.16 h; clearance [2, 4]: 7.5 mL/min/kg; half-life [2, 4]: 4.78 h; Vd ([2]; both sexes, beagle, dog, plasma, intravenous injection, 5 mg/kg, read-out: Vss): 1.85 L/kg; AUC(0-t) [2, 5]: 10600 ng·h/mL; Cmax [2, 5]: 2500 ng/mL; Tmax [2, 5]: 0.25 h; half-life [2, 5]: 5.79 h; F ([2]; oral, 10 mg/kg): 49.4%; IC50 (TYK2): 7.3 nM; IC50 (JAK3): 27 nM
3 | CCS(=O)(=O)N1CCC(CC#N)(n2ccc(-c3ncnc4[nH]ccc34)c2)CC1 [Compound of formula Ib] | no obvious toxic side effects | no significant difference | almost close to the normal group | almost close to the normal group | greater increases in animal body weight than that of the vehicle group | > 30000 nM | very strong inhibitory effects | 0.4 nM | selective inhibitory activities (JAK2; JAK2 versus the other kinases tested): good selective inhibitory activities; IC50 (JAK1): 31 nM
